Data on 5 compounds can be found in patent publication US5232923A, “Catechol derivatives and pharmaceutical preparations containing same” (Mitsui Toatsu Chemicals, Incorporated, priority 1988, dated 1993).

The subject of assay [1] is production and secretion of NGF in mouse brain astroglial cells. Briefly: Promoting activity for the production and secretion of NGF in mouse brain astroglial cells (ELISA of medium after 24 h). It counts as cell-based. As to conditions: Table 5, 0.4 mM; for fold induction at 400 µM: Mus musculus, 24 h, fold increase over control (1.00), read-out: NGF Astroglial Cell Increase Ratio; for NGF Astroglial Cell Concentration: 24 hours, control 31.8. The procedure:
Promoting activity for the production and secretion of NGF in mouse brain astroglial cells
The experiment was performed by inducing astroglial cells from the mouse forebrain to a culture system according to the procedures of S. Furukawa et al. which is described in Biochem. Biophys. Res. Commun., 136, 57-63 (1986).
Forebrains of 8-days old mice were dissected out and cut into small pieces. The pieces were washed with calcium- and magnesium-free phosphate-bufferedsaline (hereinafter abbreviated as PBS), treated with 0.25% trypsin containing PBS at 37° C. for 30 minutes and triturated with a Pasteur pipet to give a suspension. Cells and cell clumps were recovered by centrifugation at 200 xg for 5 minutes. They were cultured in Dulbecco modified Eagle's medium (a product of Gibco Co. hereinafter abbreviated as DMEM) containing 10% fetal calf serum, 50 μ units/ml of penicillin, and 50 μg/ml of streptomycin, for 10 to 14 days with medium changes every 3 days. After completing confluency, the cells were dissociated by trypsin treatment and recultured in new culture flasks. This procedure was repeated further twice and more. The culture became a uniform cell cluster. The cell cluster for use in this invention can be stained not less than 97% in accordance with the PAP staining method (peroxidase/[…] staining method) using anti-human glial fibrillar acidic protein (GFAP) rabbit antiserum. The cells will hereinafter be referred to as astroglial cells.
Astroglial cells were innoculated in 24-well plates having a well surface area of 2.1 cm^2 (a product of Falcon Co.) at a cell density of about 3×10^4 cells/well and cultured for 3 days in DMEM medium supplemented with 10% of fetal calf serum. After completing confluency about ([…]), the medium was changed to DMEM medium (0.5 ml/well) supplemented with 0.5% of bovine serum albumin (fraction V) and cultured for 3 days. The culture was further continued with medium changes every 3 days. After cells were practically synchronized in the quiscent stage, the medium was changed to 0.5 ml of the same medium and containing a prescribed concentration of test sample as illustrated in the Tables. NGF in the medium after cultivating for 24 hours was determined by the ELISA as mentioned above. Data are expressed as fold increase in NGF content over that in the absence of the test sample. The lower detection limit of the ELISA is 0.25 pg/ml and the NGF content of control medium was normally 1-10 pg/0.5 ml/well. Data are presented as the mean of four determinations. The results are illustrated in Tables 1-5.
In general terms: In an ELISA, binding on a coated surface is turned into a signal by an enzyme label.

Assay [2] relates to production and secretion of NGF in mouse L-M cells. The assay is described as follows: Promoting activity for the production and secretion of NGF in mouse L-M cells (ELISA of medium after 24 h). It counts as cell-based. As to conditions: Table 5, L-M cells, 0.4 mM; for fold induction at 400 µM: Mus musculus, 24 h, fold increase over control (1.00), read-out: NGF L-M Cell Increase Ratio; for NGF L-M Cell Concentration: 24 hours, control 0.87.

Structures are written as SMILES.

For `CN1CCN(C(=O)CCc2ccc(O)c(O)c2)CC1` [Compound 100, N-Methyl-N'-[3-(3,4-dihydroxyphenyl)propionyl]piperazine], in assay [1], the fold induction at 400 µM turned out to be 8.2 and the “NGF Astroglial Cell Concentration” value is on record as 260.8 ng/well. For the same compound, in assay [2], the fold induction at 400 µM was determined as 5 and the “NGF L-M Cell Concentration” value is given as 4.35 ng/well.

Turning to `O=C(CCc1ccc(O)c(O)c1)N1CCN(Cc2ccccc2)CC1` [Compound 101, N-Benzyl-N'-[3-(3,4-dihydroxyphenyl)propionyl]piperazine], in assay [1], the fold induction at 400 µM was determined as 9.6 and the “NGF Astroglial Cell Concentration” value is reported as 305.3 ng/well. In assay [2], the fold induction at 400 µM amounted to 5.2 and the “NGF L-M Cell Concentration” value was 4.52 ng/well.

Regarding `O=C(CCc1ccc(O)c(O)c1)N1CCN(C(c2ccccc2)c2ccccc2)CC1` [Compound 102, N-Diphenylmethyl-N'-[3-(3,4-dihydroxyphenyl)propionyl]piperazine], in assay [1], the fold induction at 400 µM stood at 10.1 and the “NGF Astroglial Cell Concentration” value came out at 321.2 ng/well. For the same compound, in assay [2], the fold induction at 400 µM is 5.1 and the “NGF L-M Cell Concentration” value is listed as 4.44 ng/well.

As to `COC(=O)[C@@H]1CCCN1C(=O)CCc1ccc(O)c(O)c1` [Compound 103, N-[3-(3,4-dihydroxyphenyl)propionyl]-L-proline methyl ester], in assay [1], the fold induction at 400 µM amounted to 6.3 and the “NGF Astroglial Cell Concentration” value is recorded as 200.3 ng/well. Moreover, in assay [2], the fold induction at 400 µM is 4.3 and the “NGF L-M Cell Concentration” value is reported as 3.74 ng/well.

Take `CCOC(=O)C1CCCN(C(=O)CCc2ccc(O)c(O)c2)C1` (centres unmarked) [Compound 104, Ethyl N-[3-(3,4-dihydroxyphenyl)propionyl]nipecotinate]: in assay [1], the fold induction at 400 µM was 7.8 and the “NGF Astroglial Cell Concentration” value was 248.0 ng/well. In assay [2], the fold induction at 400 µM stood at 5.7 and the “NGF L-M Cell Concentration” value is reported as 4.96 ng/well.
